For one experiment, the target named is PDE7A (Homo sapiens (Human), UniProt Q13946). Nature of the experiment: PDE7A assay: inhibition of PDE7A hydrolysis of [3H]cAMP to [3H]AMP (scintillation proximity, yttrium silicate beads). Particulars: 16 nM [3H]cAMP, 30° C., 20 minutes; read-out: PDE 7A IC50. In kind it is biochemical. Here is the method:
(§1) PDE7A and PDE7B Assay. Compounds were tested for their activity by measuring the inhibition of PDE7A or PDE7B hydrolysis of [3H]cAMP to [3H]AMP. Generally, eight dilutions of compound were assayed in 50 mM Tris-HCl pH 7.5, 8.3 mM MgCl2, 0.5 mg/mL BSA, 1.7 mM EGTA, 16 nM [3H]cAMP, and 1% DMSO. PDE7A or PDE7B (typically 1-5 ng/mL) (BPS BioSciences, CA) is added to initiate the reaction. The reaction was incubated at 30° C. for 20 minutes. PDE7A and PDE7B hydrolysis was terminated by the addition of yttrium silicate beads (GE Healthcare, RPNQ0150) and counted on a Wallac Microbeta scintillation counter, 1-2 hours following the addition of the beads. Data was analyzed using XLfit […] from which ICso values were obtained.
(In general: Scintillation proximity formats need no separation of bound from free tracer.)

The next experiment has as its target PDE7B (Homo sapiens (Human), UniProt Q9NP56). Kind of experiment: PDE7B assay: inhibition of PDE7B hydrolysis of [3H]cAMP to [3H]AMP (scintillation proximity, yttrium silicate beads). Particulars: 16 nM [3H]cAMP, 30° C., 20 minutes; read-out: PDE 7B IC50. In kind it is biochemical. As to the method:
as §1

The values below come from patent US20250066383A1, “PDE 7 MODULATOR COMPOUNDS” (Omeros Corporation, priority 2023, published 2025).

Sequence of PDE7B (Q9NP56 whole entry): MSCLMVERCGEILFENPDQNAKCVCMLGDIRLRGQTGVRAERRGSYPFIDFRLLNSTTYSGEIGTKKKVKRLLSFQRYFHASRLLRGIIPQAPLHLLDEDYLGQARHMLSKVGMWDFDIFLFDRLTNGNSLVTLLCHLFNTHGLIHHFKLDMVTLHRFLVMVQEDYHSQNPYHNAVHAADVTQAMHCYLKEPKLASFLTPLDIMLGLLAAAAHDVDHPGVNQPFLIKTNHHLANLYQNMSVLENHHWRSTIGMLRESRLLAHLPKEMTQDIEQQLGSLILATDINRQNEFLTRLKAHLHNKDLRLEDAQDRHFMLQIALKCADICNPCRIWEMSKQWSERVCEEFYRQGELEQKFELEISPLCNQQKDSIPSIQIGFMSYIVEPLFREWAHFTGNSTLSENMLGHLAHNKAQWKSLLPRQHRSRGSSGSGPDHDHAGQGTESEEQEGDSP
Sequence of PDE7A (Q13946 whole entry): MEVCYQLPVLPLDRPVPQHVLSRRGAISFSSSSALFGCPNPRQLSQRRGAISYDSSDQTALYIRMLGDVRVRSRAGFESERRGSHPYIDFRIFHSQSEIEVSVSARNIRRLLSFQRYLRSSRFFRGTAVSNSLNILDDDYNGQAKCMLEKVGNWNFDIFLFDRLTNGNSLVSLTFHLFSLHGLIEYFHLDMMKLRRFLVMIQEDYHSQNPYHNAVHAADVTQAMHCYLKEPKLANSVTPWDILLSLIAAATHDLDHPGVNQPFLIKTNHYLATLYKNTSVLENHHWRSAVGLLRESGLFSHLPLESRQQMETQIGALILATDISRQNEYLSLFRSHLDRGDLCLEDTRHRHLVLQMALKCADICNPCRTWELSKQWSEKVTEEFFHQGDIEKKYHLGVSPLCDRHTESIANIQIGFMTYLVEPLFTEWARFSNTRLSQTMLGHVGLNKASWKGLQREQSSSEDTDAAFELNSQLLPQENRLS

For `Cc1nn(CC2CCC2)c2sc(C(=O)N[C@H]3CC[C@H](N4CCN(CC(F)(F)F)CC4)CC3)cc12` [II-21, 1-(cyclobutylmethyl)-3-methyl-N-((1r,4r)-4-(4-(2,2,2-trifluoro-ethyl)piperazin-1-yl)-cyclohexyl)-1H-thieno[2,3-c]pyrazole-5-carboxamide], the results for the concentration for half-maximal inhibition (IC50) on PDE7A and at PDE7B were 10 to 30 nM and 30 to 100 nM, respectively.
For `Cc1nn(CC(C)(C)C)c2sc(C(=O)N[C@H]3CC[C@H](N4CCN(C5CC5)CC4)CC3)cc12` [II-24, N-((1r,4r)-4-(4-cyclo-propylpiperazin-1-yl)-cyclohexyl)-3-meth-yl-1-neopentyl-1H-thieno[2,3-c]pyrazole-5-carboxamide], in that order: < 10 nM and < 10 nM.
The like results for `Cc1nn(C2CCC(F)(F)CC2)c2sc(C(=O)N[C@H]3CC[C@H](N4CCOCC4)CC3)cc12` [II-13, 1-(4,4-difluorocyclo-hexyl)-3-methyl-N-((1r,4r)-4-morpho-linocyclohexyl)-1H-thieno[2,3-c]pyrazole-5-carboxamide] were, in that order, 10 to 30 nM and 10 to 30 nM.
For `Cc1nn(C2CCC(F)(F)CC2)c2sc(C(=O)N[C@H]3C[C@H](N4CCOCC4)C3)cc12` [II-18, 1-(4,4-difluorocyclo-hexyl)-3-methyl-N-((1r,3r)-3-morpho-linocyclobutyl)-1H-thieno[2,3-c]pyrazole-5-carboxamide], the IC50 on PDE7A and on PDE7B was 10 to 30 nM each time.
In the case of `Cc1nn(-c2ccccc2Cl)c2sc(C(=O)N[C@H]3C[C@H](N4CCN(C5CC5)CC4)C3)cc12` [Compound I-6, 1-(2-chlorophenyl)-N-((1r,3r)-3-(4-cyclo-propylpiperazin-1-yl)-cyclobutyl)-3-methyl-1H-thieno[2,3-c]pyr-azole-5-carboxamide], the IC50 on PDE7A and on PDE7B was 30 to 100 nM each time.
As for `Cc1nn(CC(C)C)c2sc(C(=O)N[C@H]3CC[C@H](N4CC(C#N)C4)CC3)cc12` [II-43, N-((1r,4r)-4-(3-cyanoazetidin-1-yl)-cyclohexyl)-1-iso-butyl-3-methyl-1H-thieno[2,3-c]pyrazole-5-carboxamide], the IC50 on PDE7A and at PDE7B was 10 to 30 nM throughout.
In the case of `Cc1nn(C2CCC(F)(F)CC2)c2sc(C(=O)N[C@H]3CC[C@H](N4CCC(F)(F)C4)CC3)cc12` [II-26, 1-(4,4-difluorocyclo-hexyl)-N-((1r,4r)-4-(3,3-difluoropyrrol-idin-1-yl)cyclohexyl)-3-methyl-1H-thieno [2,3-c]pyrazole-5-carboxamide], the IC50 at PDE7A and at PDE7B was < 10 nM in each case.
With `Cc1nn(CC(C)(C)C)c2sc(C(=O)Nc3cnc(N4CCOCC4)c(Cl)c3)cc12` [II-38, N-(5-chloro-6-morpholinopyridin-3-yl)-3-methyl-1-neopentyl-1H-thieno [2,3-c]pyrazole-5-carboxamide], the IC50 (as a rule, the midpoint of a concentration-inhibition curve) on PDE7A was in the range of 100 to 500 nM; on PDE7B it was 500 to 2500 nM.
Consider `Cc1nn(C2C[C@@H](C)O[C@@H](C)C2)c2sc(C(=O)N[C@H]3CC[C@H](N4CCN(C(C)C)CC4)CC3)cc12` (stereo partly shown) [II-1, 1-((2r,6s)-2,6-dimeth-yltetrahydro-2H-pyr-an-4-yl)-N-((1r,4r)-4-(4-isopropylpiperazin-1-yl)cyclohexyl)-3-methyl-1H-thieno [2,3-c]pyrazole-5-carboxamide], for which the values for the 50% inhibitory concentration (IC50) at PDE7A and at PDE7B were 100 to 500 nM and 500 to 2500 nM, respectively.
On to `CC(=O)N1CCN([C@H]2CC[C@H](NC(=O)c3cc4c(C)nn(C5C[C@@H](C)O[C@@H](C)C5)c4s3)CC2)CC1` (stereo partly shown) [II-2, N-((1r,4r)-4-(4-acetylpiperazin-1-yl)-cyclohexyl)-1-((2r,6s)-2,6-dimeth-yltetrahydro-2H-pyr-ran-4-yl)-3-methyl-1H-thieno[2,3-c]pyr-azole-5-carboxamide], for which the concentration for half-maximal inhibition (IC50) on PDE7A was 30 to 100 nM; on PDE7B it was 100 to 500 nM.
For `Cc1nn(CC(C)C)c2sc(C(=O)N[C@H]3CC[C@H](N4CCN(C(C)C)CC4)CC3)cc12` [II-5, 1-isobutyl-N-((1r,4r)-4-(4-isopropylpiper-azin-1-yl)cyclohexyl)-3-methyl-1H-thieno [2,3-c]pyrazole-5-carboxamide], in that order: 30 to 100 nM and 10 to 30 nM.
For `Cc1nn(C2CCC(F)(F)CC2)c2sc(C(=O)N[C@H]3C[C@H](N4CCC(F)(F)C4)C3)cc12` [II-3, 1-(4,4-difluorocyclo-hexyl)-N-(3-(3,3-difluoropyrrolidin-1-yl)cyclobutyl)-3-methyl-1H-thieno [2,3-c]pyrazole-5-carboxamide], in that order: 10 to 30 nM and 10 to 30 nM.
For `Cc1nn(C2CCC(F)(F)CC2)c2sc(C(=O)N[C@H]3CC[C@H](N4CCN(CC(F)(F)F)CC4)CC3)cc12` [II-12, 1-(4,4-difluorocyclo-hexyl)-N-((1r,4r)-4-(4-(2,2-trifluoroeth-yl)piperazin-1-yl)-cyclohexyl)-3-meth-yl-1H-thieno[2,3-c] pyrazole-5-carbox-amide], in that order: < 10 nM and 10 to 30 nM.
For the compound `Cc1nn(-c2ccccc2Cl)c2sc(C(=O)N[C@H]3CC[C@H](N4CCOCC4)CC3)cc12` [Compound I-2, 1-(2-chlorophenyl)-3-methyl-N-((1r,4r)-4-morpholinocyclohex-yl)-1H-thieno[2,3-c] pyrazole-5-carbox-amide], the IC50 at PDE7A and on PDE7B was 10 to 30 nM each time.
Consider `Cc1nn(CC2CCC2)c2sc(C(=O)N[C@H]3CC[C@H](N4CCN(C5CC5)CC4)CC3)cc12` [II-20, 1-(cyclobutylmethyl)-N-((1r,4r)-4-(4-cyclopropylpiperazin-1-yl)cyclohexyl)-3-methyl-1H-thieno [2,3-c]pyrazole-5-carboxamide], for which the IC50 at PDE7A lay within 30 to 100 nM; on PDE7B, 100 to 500 nM.
For the compound `Cc1nn(CC(C)(C)C)c2sc(C(=O)N[C@H]3CC[C@H](N4CC(F)(F)C4)CC3)cc12` [II-30, N-((1r,4r)-4-(3,3-difluoroazetidin-1-yl)cyclohexyl)-3-methyl-1-neopentyl-1H-thieno[2,3-c]pyr-azole-5-carboxamide], the IC50 at PDE7A and at PDE7B was < 10 nM in each case.
On to `Cc1nn(-c2ccccc2Cl)c2sc(C(=O)N[C@H]3C[C@H](N4CCOCC4)C3)cc12` [Compound I-3, 1-(2-chlorophenyl)-3-methyl-N-((1r,3r)-3-morpholinocyclobut-yl)-1H-thieno[2,3-c] pyrazole-5-carbox-amide], for which the IC50 lay in the range of 10 to 30 nM at PDE7A and 30 to 100 nM on PDE7B.
For `Cc1nn(CC(C)(C)C)c2sc(C(=O)N[C@H]3C[C@H](N4CCN(C5CC5)CC4)C3)cc12` [II-34, N-((1r,3r)-3-(4-cyclo-propylpiperazin-1-yl)cyclobutyl)-3-methyl-1-neopentyl-1H-thieno[2,3-c] pyrazole-5-carbox-amide], in that order: 10 to 30 nM and 30 to 100 nM.
For `CC(=O)N1CCN([C@H]2CC[C@H](NC(=O)c3cc4c(C)nn(C5CCC(F)(F)CC5)c4s3)CC2)CC1` [II-9, N-((1r,4r)-4-(4-acet-ylpiperazin-1-yl)-cyclohexyl)-1-(4,4-difluorocyclohexyl)-3-methyl-1H-thieno [2,3-c]pyrazole-5-carboxamide], in that order: < 10 nM and < 10 nM.
For `Cc1nn(CC(C)C)c2sc(C(=O)N[C@H]3CC[C@H](N4CCOCC4)CC3)cc12` [II-14], in that order: 30 to 100 nM and 30 to 100 nM.
Take `Cc1nn(CC(C)(C)C)c2sc(C(=O)N[C@H]3CC[C@H](N4CCN(C(C)C)CC4)CC3)cc12` [II-31, N-((1r,4r)-4-(4-iso-propylpiperazin-1-yl)cyclohexyl)-3-methyl-1-neopentyl-1H-thieno[2,3-c]pyr-azole-5-carboxamide]: the IC50 on PDE7A and at PDE7B was < 10 nM each time.
For the compound `Cc1nn(CC(C)C)c2sc(C(=O)N[C@H]3CC[C@H](N4CCN(C5CC5)CC4)CC3)cc12` [II-6, N-((1r,4r)-4-(4-cyclo-propylpiperazin-1-yl)-cyclohexyl)-1-isobut-yl-3-methyl-1H-thieno[2,3-c]pyrazole-5-carboxamide], the figures for the IC50 at PDE7A and on PDE7B were 10 to 30 nM and 30 to 100 nM, respectively.
As for `Cc1nn(C2CCC(F)(F)CC2)c2sc(C(=O)N[C@H]3CC[C@H](N4CC(OC(F)F)C4)CC3)cc12` [II-41, 1-(4,4-difluorocyclo-hexyl)-N-((1r,4r)-4-(3-(difluorometh-oxy)azetidin-1-yl)-cyclohexyl)-3-methyl-1H-thieno [2,3-c]pyrazole-5-carboxamide], the figures for the IC50 at PDE7A and on PDE7B were 10 to 30 nM and < 10 nM, respectively.
The like results for `CC(=O)N1CCN([C@H]2CC[C@H](NC(=O)c3cc4c(C)nn(CC(C)C)c4s3)CC2)CC1` [II-16, N-((1r,4r)-4-(4-acet-ylpiperazin-1-yl)-cyclohexyl)-1-iso-butyl-3-methyl-1H thieno[2,3-c]pyrazole-5-carboxamide] were, in that order, 10 to 30 nM and 30 to 100 nM.
Turning to `Cc1nn(CC(C)(C)C)c2sc(C(=O)N[C@H]3CC[C@H](N4CCN(CC(F)F)CC4)CC3)cc12` [II-28, N-((1r,4r)-4-(4-(2,2-difluoroethyl)piper-azin-1-yl)cyclohex-yl)-3-methyl-1-neo-pentyl-1H-thieno [2,3-c]pyrazole-5-carboxamide], the IC50 on PDE7A and at PDE7B was 10 to 30 nM throughout.
Regarding `Cc1nn(C2CCC(F)(F)CC2)c2sc(C(=O)N[C@H]3CC[C@H](N4CCN(C(C)C)CC4)CC3)cc12` [II-10, 1-(4,4-difluorocyclo-hexyl)-N-((1r,4r)-4-(4-isopropylpiper-azin-1-yl)cyclohex-yl)-3-methyl-1H-thieno[2,3-c]pyra-zole-5-carboxamide], the IC50 at PDE7A and at PDE7B was < 10 nM each time.
